According to PMC4885039, “A Scorpion Defensin BmKDfsin4 Inhibits Hepatitis B Virus Replication in Vitro” (Toxins, 2016):
Residues, ends and D or L forms follow the SMILES beside them.

Assays:
HepG2.2.15 cells = test: MTT cytotoxicity assay, HepG2.2.15; type: cell-based, human; conditions: 48 h, 0 to 200 μM, five repetitions
Method: Cells were seeded in 96-well plates (10^4 cells per well) and cultured in DMEM containing 10% FBS in 5% CO2 at 37 °C for 12 h. Then, peptides were added to the medium in a serial of concentrations. The concentrations ranged from 0 to 200 μM. Five repetitions were set for each concentration. After 48 h of incubation, 20 μL of MTT solution (5 mg/mL in PBS buffer; Invitrogen, Foster, CA, USA) was added to the medium in each well, and the plate was incubated in 5% CO2 at 37 °C for 4 h. Then, the medium was replaced by 100 μL DMSO. To completely dissolve the precipitated crystal purple formazan, the plate was then gently shaken for 10 min at room temperature. The absorbance at a wavelength of 570 nm was measured using a microplate reader (BioTek, Winooski, VT, USA).

human erythrocytes = test: Hemolysis assay; type: cell-based; conditions: 37 °C, 1 h, absorbance at 570 nm, 0 to 200 μM
Method: Erythrocytes were obtained from fresh human blood by centrifugation for 10 min at 1000× g. After washed by HEPES buffer for three times, erythrocytes were resuspended in normal saline and seeded in 96-well plates (10^7 cells per well). BmKDfsin4 was added in a serial of concentrations, 0.1% triton-X100 was used as positive control and normal saline was used as negative control. After incubated at 37 °C for 1 h, the supernatants were collected by centrifugation for 10 min at 1000× g. The absorbance of hemoglobin was measured at a wavelength of 570 nm.

HBsAg = test: Western blot of intracellular HBsAg in HepG2.2.15 cell lysates; type: cell-based, Hepatitis B virus; conditions: 10 μM, HepG2.2.15 cell lysate
Method: (§1) Cells were resuspended with radioimmunoprecipitation (RIPA) assay buffer (50 mM Tris-HCl (pH 7.5), 150 mM sodium chloride, 1% Nonidet P40, and 0.5% sodium deoxycholate) with phenylmethylsulfonyl fluoride (PMSF) and incubated on ice for 30 min for fully lysis. Cell lysates were electrophoresed in sodium dodecyl sulfate-polyacrylamide (SDS) gels and transferred to nitrocellulose membranes (Millipore, Darmstadt, Germany). The antibodies used for probing were as follows: mouse monoclonal anti-HBsAg (1:200 dilution, Abcam, Cambridge, UK), rabbit polyclonal anti-HBV core (1:500 dilution, Dako-Cytomation, Carpinteria, CA, USA), mouse monoclonal anti-Hep B xAg (1:200 dilution, Santa Cruz Biotechnology, Dallas, TX, USA), mouse monoclonal anti-Hep B Pol (1:200 dilution, Santa Cruz Biotechnology, Dallas, TX, USA), and anti-β-actin (1:5000 dilution, Santa Cruz Biotechnology, Dallas, TX, USA) were used as primary antibodies, and the secondary antibodies were conjugated to horseradish peroxidase (HRP).

HBx protein = test: Western blot of intracellular HBx protein in HepG2.2.15 cell lysates; type: cell-based, Hepatitis B virus; conditions: HepG2.2.15 cell lysate
Method: as §1

HBV core = test: Western blot of intracellular HBV core in HepG2.2.15 cell lysates; type: cell-based, Hepatitis B virus; conditions: HepG2.2.15 cell lysate
Method: as §1

HBV RT = test: Western blot of intracellular HBV RT in HepG2.2.15 cell lysates; type: cell-based, Hepatitis B virus; conditions: HepG2.2.15 cell lysate
Method: as §1

In the case of `CC[C@H](C)[C@@H]1NC(=O)[C@H](CO)NC(=O)[C@H](CCC(N)=O)NC(=O)[C@@H]2CSSC[C@@H](C(=O)N[C@@H](Cc3ccc(O)cc3)C(=O)N[C@@H](CCCNC(=N)N)C(=O)O)NC(=O)[C@H](C(C)C)NC(=O)[C@@H]3CSSC[C@H](NC(=O)[C@H](CCC(N)=O)NC(=O)CNC(=O)[C@H](CCC(N)=O)NC(=O)[C@H](CC(N)=O)NC(=O)[C@H](Cc4ccccc4)NC(=O)[C@@H]4CCCN4C(=O)[C@@H](NC(=O)CNC(=O)[C@H](Cc4ccccc4)NC(=O)CN)CSSC[C@H](NC(=O)[C@H](Cc4ccc(O)cc4)NC(=O)CNC(=O)CNC(=O)[C@H](CCCNC(=N)N)NC(=O)[C@H](CCCNC(=N)N)NC(=O)[C@H](CCCNC(=N)N)NC1=O)C(=O)N[C@@H](CC(=O)O)C(=O)NCC(=O)N[C@@H](Cc1ccccc1)C(=O)N[C@@H](CC(C)C)C(=O)N[C@@H](CCCCN)C(=O)N[C@@H]([C@@H](C)O)C(=O)N[C@@H](CCCNC(=N)N)C(=O)N3)C(=O)N[C@@H](Cc1c[nH]cn1)C(=O)N[C@@H](CCCCN)C(=O)N[C@@H](Cc1c[nH]cn1)C(=O)N2` [BmKDfsin4] (HELM PEPTIDE1{G.F.G.C.P.F.N.Q.G.Q.C.H.K.H.C.Q.S.I.R.R.R.G.G.Y.C.D.G.F.L.K.T.R.C.V.C.Y.R}$PEPTIDE1,PEPTIDE1,4:R3-25:R3|PEPTIDE1,PEPTIDE1,11:R3-33:R3|PEPTIDE1,PEPTIDE1,15:R3-35:R3$$$V2.0; N-terminus and C-terminus assumed; bridges inferred), the “CC50 (50% cytotoxicity concentration), HepG2.2.15” value (HepG2.2.15 cells) is reported as 167.82 µM, the “HC50 (50% hemolysis concentration)” value (human erythrocytes) is reported as 66.85 µM and the “intracellular HBsAg level” value (HBsAg) is reported as “almost undetectable”. The “intracellular HBx protein level” value (HBx protein; 5 μM) was “only a slight band”, the “intracellular HBx protein level” value (HBx protein; 10 μM) was “totally undetectable” and the “inhibitory activity against intracellular HBV core” value (HBV core) was “significantly concentration-dependent inhibition”. For the same compound, the “inhibitory activity against intracellular HBV RT” value (HBV RT) was “significantly concentration-dependent inhibition”.
